Measurements from patent US20080009418A1, “Selective Inhibitors” (Alchemia LTD., priority 2004, published 2008).

Key:
[1] = biological target: T1, Human μ-opioid (MOP) (Homo sapiens, UniProt P35372); test: Radioligand binding, human μ-opioid (MOP) membranes, FlashPlate, [3H]-Naloxone; conditions: compound at 10 μM, [3H]-Naloxone
T1 construct: purchased Perkin Elmer Biosignal
Summary of the method: (§1)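 Cloned human receptor membranes were coated onto FlashPlate wells and incubated with radioligand and compound (added from a 0.5 mM DMSO daughter plate) for 1 hour at room temperature in the dark. Scintillation counting gave percent inhibition, with DMSO defining total and reference ligand defining non-specific binding.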

[2] = biological target: T2, Human Melanocortin (MC3) (Homo sapiens, UniProt P41968); test: Radioligand binding, human melanocortin MC3 membranes, FlashPlate, [125I]-NDP-αMSH; conditions: compound at 10 μM, [125I]-NDP-αMSH
T2 construct: purchased Perkin Elmer Biosignal
T2 sequence (P41968 whole entry): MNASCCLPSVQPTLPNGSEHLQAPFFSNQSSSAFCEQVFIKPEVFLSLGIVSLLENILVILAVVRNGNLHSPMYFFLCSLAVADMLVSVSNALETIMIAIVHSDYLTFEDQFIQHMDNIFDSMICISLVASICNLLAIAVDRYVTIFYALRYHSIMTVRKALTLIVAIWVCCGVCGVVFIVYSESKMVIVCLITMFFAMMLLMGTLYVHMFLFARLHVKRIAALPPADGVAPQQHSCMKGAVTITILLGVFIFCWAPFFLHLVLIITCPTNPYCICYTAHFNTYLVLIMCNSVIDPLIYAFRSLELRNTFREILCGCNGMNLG
Summary of the method: as §1

[3] = biological target: T3, Human κ-Opioid (KOP) (Homo sapiens, UniProt P41145); test: Radioligand binding, human κ-opioid (KOP) membranes, filtration, [3H]-Diprenorphine; conditions: compound at 10 μM, [3H]-Diprenorphine
T3 construct: purchased Perkin Elmer Biosignal
T3 sequence (P41145 whole entry): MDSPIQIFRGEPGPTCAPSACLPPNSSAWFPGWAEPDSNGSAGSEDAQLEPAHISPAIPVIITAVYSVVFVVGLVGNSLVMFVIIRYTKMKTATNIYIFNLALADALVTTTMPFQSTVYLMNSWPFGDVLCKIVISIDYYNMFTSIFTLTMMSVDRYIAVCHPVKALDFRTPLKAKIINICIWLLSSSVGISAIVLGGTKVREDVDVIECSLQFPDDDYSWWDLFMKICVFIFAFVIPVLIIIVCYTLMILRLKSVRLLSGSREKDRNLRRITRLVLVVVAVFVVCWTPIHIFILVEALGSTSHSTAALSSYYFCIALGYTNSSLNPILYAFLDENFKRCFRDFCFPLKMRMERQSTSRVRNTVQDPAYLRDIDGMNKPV
Summary of the method: (§2)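 Membranes from cloned human receptors were incubated with compound and radioligand for 1 hour at room temperature. Bound ligand was collected on 0.3% PEI-soaked filters, washed with cold 50 mM Tris-HCl pH 7.4, and counted by scintillation. Percent inhibition was computed against DMSO totals and reference-ligand nonspecific wells.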

[4] = biological target: T4, Human δ-opioid (DOP) (Homo sapiens, UniProt P41143); test: Radioligand binding, human δ-opioid (DOP) membranes, FlashPlate, [3H]-Bremazocine; conditions: compound at 10 μM, [3H]-Bremazocine
T4 construct: purchased Perkin Elmer Biosignal
T4 sequence (P41143 whole entry): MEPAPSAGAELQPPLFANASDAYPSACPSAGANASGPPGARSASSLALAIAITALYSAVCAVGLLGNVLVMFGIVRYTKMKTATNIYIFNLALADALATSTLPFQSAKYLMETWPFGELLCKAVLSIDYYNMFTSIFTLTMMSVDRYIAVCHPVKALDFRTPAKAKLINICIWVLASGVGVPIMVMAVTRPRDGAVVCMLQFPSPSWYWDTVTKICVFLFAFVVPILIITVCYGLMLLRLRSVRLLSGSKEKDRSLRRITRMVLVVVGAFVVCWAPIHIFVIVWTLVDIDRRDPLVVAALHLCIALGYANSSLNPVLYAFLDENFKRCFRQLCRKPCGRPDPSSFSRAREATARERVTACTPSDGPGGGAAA
Summary of the method: as §1

[5] = biological target: T5, Human opioid (ORL1) (Homo sapiens, UniProt P41146); test: Radioligand binding, human opioid ORL1 membranes, FlashPlate, [125I]-Nociceptin; conditions: compound at 10 μM, [125I]-Nociceptin
T5 construct: purchased Perkin Elmer Biosignal
T5 sequence (P41146 whole entry): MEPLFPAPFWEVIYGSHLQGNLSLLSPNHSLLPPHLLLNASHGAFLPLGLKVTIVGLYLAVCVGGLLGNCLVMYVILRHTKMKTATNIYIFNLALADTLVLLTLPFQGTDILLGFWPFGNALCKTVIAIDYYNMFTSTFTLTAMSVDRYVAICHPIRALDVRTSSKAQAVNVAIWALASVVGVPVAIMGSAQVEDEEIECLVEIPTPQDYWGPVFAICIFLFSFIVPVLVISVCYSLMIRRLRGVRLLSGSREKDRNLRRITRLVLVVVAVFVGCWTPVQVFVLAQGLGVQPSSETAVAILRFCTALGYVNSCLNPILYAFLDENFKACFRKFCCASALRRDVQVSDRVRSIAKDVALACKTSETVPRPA
Summary of the method: as §1

[6] = biological target: T6, Mouse urotensin (mUR2) (Mus musculus, UniProt Q8VIH9); test: Radioligand binding, mouse urotensin mUR2 membranes, FlashPlate, [125I]-Urotensin II; conditions: compound at 10 μM, [125I]-Urotensin II
T6 construct: purchased Perkin Elmer Biosignal
T6 sequence (Q8VIH9 1-385): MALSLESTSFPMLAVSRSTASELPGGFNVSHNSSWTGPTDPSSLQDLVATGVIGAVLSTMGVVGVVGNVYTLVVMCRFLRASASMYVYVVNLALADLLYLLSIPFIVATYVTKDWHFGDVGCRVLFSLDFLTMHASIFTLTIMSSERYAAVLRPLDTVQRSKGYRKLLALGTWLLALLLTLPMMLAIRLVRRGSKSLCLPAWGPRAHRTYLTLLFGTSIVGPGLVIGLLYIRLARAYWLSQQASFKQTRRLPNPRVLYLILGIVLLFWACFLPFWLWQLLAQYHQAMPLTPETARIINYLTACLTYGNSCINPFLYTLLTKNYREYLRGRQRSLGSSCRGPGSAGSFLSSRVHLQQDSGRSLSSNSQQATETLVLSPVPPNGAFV
Summary of the method: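 Cloned mouse urotensin (mUR2) receptor membranes from Perkin Elmer Biosignal were immobilized in FlashPlate microplates using a proprietary coating. Each well got 19.5 μl buffer, then 0.5 μl of DMSO, reference ligand, or compound. Adding 5 μl of [125I]-Urotensin II, diluted to 5× final concentration in binding buffer, started binding. Plates were sealed with TopSeal-A and incubated 1 hour at room temperature in the dark. Wells were counted for 30 seconds each on a TopCount after a 60-second delay, and percentage inhibition was calculated.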

[7] = biological target: T7, Human Melanocortin (MC4) (Homo sapiens, UniProt P32245); test: Radioligand binding, human melanocortin MC4 membranes, FlashPlate, [125I]-NDP-αMSH; conditions: compound at 10 μM, [125I]-NDP-αMSH
T7 construct: purchased Perkin Elmer Biosignal
T7 sequence (P32245 whole entry): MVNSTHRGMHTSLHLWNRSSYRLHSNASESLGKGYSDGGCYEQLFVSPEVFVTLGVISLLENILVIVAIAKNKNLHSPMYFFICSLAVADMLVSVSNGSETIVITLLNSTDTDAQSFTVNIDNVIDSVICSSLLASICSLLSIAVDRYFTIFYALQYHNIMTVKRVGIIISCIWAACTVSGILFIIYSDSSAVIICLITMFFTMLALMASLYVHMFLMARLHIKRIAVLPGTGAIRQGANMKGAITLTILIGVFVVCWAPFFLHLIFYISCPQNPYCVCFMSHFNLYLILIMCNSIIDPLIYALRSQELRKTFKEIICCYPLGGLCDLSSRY
Summary of the method: as §1

[8] = biological target: T8, Human neurokinin (NK1) (Homo sapiens, UniProt P25103); test: Radioligand binding, human neurokinin NK1 membranes, filtration, [125I]-Substance P; conditions: compound at 10 μM, [125I]-Substance P
T8 construct: purchased Perkin Elmer Biosignal
T8 sequence (P25103 whole entry): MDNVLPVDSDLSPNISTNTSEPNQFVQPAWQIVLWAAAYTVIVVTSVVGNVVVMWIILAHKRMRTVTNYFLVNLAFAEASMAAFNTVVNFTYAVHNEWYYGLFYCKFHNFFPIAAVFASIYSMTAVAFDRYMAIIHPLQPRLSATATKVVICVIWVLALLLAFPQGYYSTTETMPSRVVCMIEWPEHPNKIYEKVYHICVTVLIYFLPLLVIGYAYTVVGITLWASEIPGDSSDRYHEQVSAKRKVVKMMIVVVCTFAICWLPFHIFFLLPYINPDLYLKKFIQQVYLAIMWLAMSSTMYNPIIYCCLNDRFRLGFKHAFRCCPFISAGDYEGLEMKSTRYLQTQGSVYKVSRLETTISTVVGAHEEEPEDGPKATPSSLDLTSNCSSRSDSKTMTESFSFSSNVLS
Summary of the method: as §2

[9] = biological target: T9, Human melanin-concentrating hormone (MCH1) (Homo sapiens, UniProt Q99705); test: Radioligand binding, human melanin-concentrating hormone MCH1 membranes, FlashPlate, [125I]-S36057; conditions: compound at 10 μM
T9 construct: purchased Perkin Elmer Biosignal
T9 sequence (Q99705 whole entry): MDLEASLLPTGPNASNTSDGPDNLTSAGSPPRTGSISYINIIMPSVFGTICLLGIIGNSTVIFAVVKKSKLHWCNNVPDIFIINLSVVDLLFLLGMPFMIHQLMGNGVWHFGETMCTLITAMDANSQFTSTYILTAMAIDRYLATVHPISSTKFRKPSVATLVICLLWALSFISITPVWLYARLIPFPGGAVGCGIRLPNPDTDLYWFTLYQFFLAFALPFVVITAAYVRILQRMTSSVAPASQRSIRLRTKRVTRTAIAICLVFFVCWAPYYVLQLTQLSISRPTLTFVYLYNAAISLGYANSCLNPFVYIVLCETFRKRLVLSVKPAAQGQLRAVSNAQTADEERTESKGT
Summary of the method: as §1

[10] = biological target: T10, Human melanocortin (MC5) (Homo sapiens, UniProt P33032); test: Radioligand binding, human melanocortin MC5 membranes, FlashPlate, [125I]-NDP-αMSH; conditions: compound at 10 μM, [125I]-NDP-αMSH
T10 construct: purchased Perkin Elmer Biosignal
T10 sequence (P33032 whole entry): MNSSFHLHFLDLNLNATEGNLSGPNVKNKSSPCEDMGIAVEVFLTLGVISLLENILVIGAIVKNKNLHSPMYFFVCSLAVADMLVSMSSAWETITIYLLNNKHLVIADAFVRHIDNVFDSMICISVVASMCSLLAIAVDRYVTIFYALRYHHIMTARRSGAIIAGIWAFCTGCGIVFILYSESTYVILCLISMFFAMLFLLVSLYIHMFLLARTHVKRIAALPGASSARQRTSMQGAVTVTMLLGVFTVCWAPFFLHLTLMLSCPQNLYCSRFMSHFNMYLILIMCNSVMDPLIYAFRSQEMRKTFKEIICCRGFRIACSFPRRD
Summary of the method: as §1

[11] = biological target: T11, Human neuropeptide Y (NPY-Y1) (Homo sapiens, UniProt P25929); test: Radioligand binding, human neuropeptide Y NPY-Y1 membranes, FlashPlate, [125I]-PYY; conditions: compound at 10 μM, [125I]-PYY
T11 construct: purchased Perkin Elmer Biosignal
T11 sequence (P25929 1-384): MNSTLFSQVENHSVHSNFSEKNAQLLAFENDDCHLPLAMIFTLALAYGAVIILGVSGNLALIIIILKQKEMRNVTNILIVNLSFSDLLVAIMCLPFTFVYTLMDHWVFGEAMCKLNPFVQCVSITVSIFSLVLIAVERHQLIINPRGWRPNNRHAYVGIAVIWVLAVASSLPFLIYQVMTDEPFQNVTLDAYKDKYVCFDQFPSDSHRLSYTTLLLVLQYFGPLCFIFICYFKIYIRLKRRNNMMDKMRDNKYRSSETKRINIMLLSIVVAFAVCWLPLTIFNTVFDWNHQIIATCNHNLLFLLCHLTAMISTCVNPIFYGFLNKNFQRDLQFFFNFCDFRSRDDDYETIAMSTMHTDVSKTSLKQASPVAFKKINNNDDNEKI
Summary of the method: as §1

[12] = [125I]-S36057, human MCH1 membranes

T1 sequence (P35372 whole entry): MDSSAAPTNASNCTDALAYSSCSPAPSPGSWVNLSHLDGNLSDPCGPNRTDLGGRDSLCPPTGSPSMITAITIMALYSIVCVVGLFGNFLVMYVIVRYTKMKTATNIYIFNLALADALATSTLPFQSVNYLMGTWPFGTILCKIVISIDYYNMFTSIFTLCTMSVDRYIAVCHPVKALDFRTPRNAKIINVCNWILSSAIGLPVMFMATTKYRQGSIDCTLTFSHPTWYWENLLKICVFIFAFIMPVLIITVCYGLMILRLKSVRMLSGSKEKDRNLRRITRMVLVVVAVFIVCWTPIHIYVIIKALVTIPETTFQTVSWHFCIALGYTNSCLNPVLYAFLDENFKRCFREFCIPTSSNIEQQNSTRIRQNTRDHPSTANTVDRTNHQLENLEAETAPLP

SMILES | A7: inhibition of radioligand binding ([1]; FlashPlate) | A3: inhibition of radioligand binding ([2]; FlashPlate) | A2: inhibition of radioligand binding ([3]; filtration) | A1: inhibition of radioligand binding ([4]; FlashPlate) | A10: inhibition of radioligand binding ([5]; FlashPlate) | A11: inhibition of radioligand binding ([6]; FlashPlate) | A4: inhibition of radioligand binding ([7]; FlashPlate) | A8: inhibition of radioligand binding ([8]; filtration) | A6: inhibition of radioligand binding ([9]; [125I]-S36057, FlashPlate) | A5: inhibition of radioligand binding ([10]; FlashPlate) | A9: inhibition of radioligand binding ([11]; FlashPlate) | A7: inhibition of radioligand binding ([1]; human MOP membranes) | A3: inhibition of radioligand binding ([2]; human MC3 membranes) | A2: inhibition of radioligand binding ([3]; human KOP membranes) | A1: inhibition of radioligand binding ([4]; human DOP membranes) | A10: inhibition of radioligand binding ([5]; human ORL1 membranes) | A11: inhibition of radioligand binding ([6]; mouse mUR2 membranes) | A4: inhibition of radioligand binding ([7]; human MC4 membranes) | A8: inhibition of radioligand binding ([8]; human NK1 membranes) | A6: inhibition of radioligand binding [9, 12] | also measured
COCC1OC(OCc2ccccc2)C(NC(=O)CN)C(OCc2ccc3ccccc3c2)C1O (stereo not shown) [compound 188] | − (“−” indicates less than 50% inhibition at 10 μM) | − (“−” indicates less than 50% inhibition at 10 μM) | − (“−” indicates less than 50% inhibition at 10 μM) | − (“−” indicates less than 50% inhibition at 10 μM) | − (“−” indicates less than 50% inhibition at 10 μM) | − (“−” indicates less than 50% inhibition at 10 μM) | − (“−” indicates less than 50% inhibition at 10 μM) | + (“+” indicates greater than 50% inhibition at 10 μM) | − (“−” indicates less than 50% inhibition at 10 μM) | − (“−” indicates less than 50% inhibition at 10 μM) | − (“−” indicates less than 50% inhibition at 10 μM) |  |  |  |  |  |  |  |  |  | 
CSC1OC(COCc2ccc(-c3ccccc3)cc2)C(O)C(OCc2ccccc2)C1NC(=O)CCNC(=N)N (stereo not shown) [compound 257] | − (“−” indicates less than 50% inhibition at 10 μM) | − (“−” indicates less than 50% inhibition at 10 μM) | − (“−” indicates less than 50% inhibition at 10 μM) | − (“−” indicates less than 50% inhibition at 10 μM) | − (“−” indicates less than 50% inhibition at 10 μM) | − (“−” indicates less than 50% inhibition at 10 μM) | + (“+” indicates greater than 50% inhibition at 10 μM) | + (“+” indicates greater than 50% inhibition at 10 μM) | − (“−” indicates less than 50% inhibition at 10 μM) | − (“−” indicates less than 50% inhibition at 10 μM) | − (“−” indicates less than 50% inhibition at 10 μM) |  |  |  |  |  |  |  |  |  | 
N=C(N)NCC(=O)NC1C(OCc2ccc(-c3ccccc3)cc2)OC(COCc2ccc3ccccc3c2)C(O)C1OCc1ccc(-c2ccccc2)cc1 (stereo not shown) [compound 405] |  |  |  |  |  |  |  |  |  |  |  | − (“−” indicates less than 50% inhibition at 10 μM) | + (“+” indicates greater than 50% inhibition at 10 μM) | − (“−” indicates less than 50% inhibition at 10 μM) | − (“−” indicates less than 50% inhibition at 10 μM) | − (“−” indicates less than 50% inhibition at 10 μM) | − (“−” indicates less than 50% inhibition at 10 μM) | − (“−” indicates less than 50% inhibition at 10 μM) | + (“+” indicates greater than 50% inhibition at 10 μM) | − (“−” indicates less than 50% inhibition at 10 μM) | A5: inhibition of radioligand binding ([10]; human MC5 membranes): + (“+” indicates greater than 50% inhibition at 10 μM); A9: inhibition of radioligand binding ([11]; human NPY-Y1 membranes): − (“−” indicates less than 50% inhibition at 10 μM)
N=C(N)NCCC(=O)NC1C(OCc2ccc(-c3ccccc3)cc2)OC(COCc2ccc3ccccc3c2)C(O)C1OCc1ccc2ccccc2c1 (stereo not shown) [compound 411] |  |  |  |  |  |  |  |  |  |  |  | − (“−” indicates less than 50% inhibition at 10 μM) | + (“+” indicates greater than 50% inhibition at 10 μM) | − (“−” indicates less than 50% inhibition at 10 μM) | − (“−” indicates less than 50% inhibition at 10 μM) | + (“+” indicates greater than 50% inhibition at 10 μM) | − (“−” indicates less than 50% inhibition at 10 μM) | + (“+” indicates greater than 50% inhibition at 10 μM) | + (“+” indicates greater than 50% inhibition at 10 μM) | + (“+” indicates greater than 50% inhibition at 10 μM) | A5: inhibition of radioligand binding ([10]; human MC5 membranes): + (“+” indicates greater than 50% inhibition at 10 μM); A9: inhibition of radioligand binding ([11]; human NPY-Y1 membranes): − (“−” indicates less than 50% inhibition at 10 μM)
CSC1OC(COCc2cccc(N)c2)C(O)C(OCc2ccc(Cl)cc2)C1NC(=O)C=Cc1ccccc1 (stereo not shown) [compound 329] |  |  |  |  |  |  |  |  |  |  |  |  |  |  |  |  |  |  |  |  | A7: inhibition of radioligand binding, human μ-opioid (MOP) [1]: − (“−” indicates less than 50% inhibition at 10 μM); A3: inhibition of radioligand binding, human melanocortin (MC3) [2]: − (“−” indicates less than 50% inhibition at 10 μM); A2: inhibition of radioligand binding, human κ-opioid (KOP) [3]: − (“−” indicates less than 50% inhibition at 10 μM); A1: inhibition of radioligand binding, human δ-opioid (DOP) [4]: − (“−” indicates less than 50% inhibition at 10 μM); A10: inhibition of radioligand binding, human opioid (ORL1) [5]: − (“−” indicates less than 50% inhibition at 10 μM); A11: inhibition of radioligand binding, mouse urotensin (mUR2) [6]: − (“−” indicates less than 50% inhibition at 10 μM); A4: inhibition of radioligand binding, human melanocortin (MC4) [7]: − (“−” indicates less than 50% inhibition at 10 μM); A8: inhibition of radioligand binding, human neurokinin (NK1) [8]: + (“+” indicates greater than 50% inhibition at 10 μM); A6: inhibition of radioligand binding, human melanin-concentrating hormone (MCH1) ([9]; [125I]-S36057): − (“−” indicates less than 50% inhibition at 10 μM); A5: inhibition of radioligand binding, human melanocortin (MC5) [10]: − (“−” indicates less than 50% inhibition at 10 μM); A9: inhibition of radioligand binding, human neuropeptide Y (NPY-Y1) [11]: − (“−” indicates less than 50% inhibition at 10 μM)
